From patent US7696200B2, “Bicyclic sulfonamide derivatives which are L-CPT1 inhibitors” (Hoffmann-La Roche Inc., priority 2006, dated 2010)

Biological target: T1, L-CPT1 (human liver CPT1) (Homo sapiens, UniProt P50416)
T1 construct: made in house; host or cells: Pichia pastoris strain X-33 (pGAPZB/pGAPZA), crude cell-free extract
T1 sequence (P50416 1-773): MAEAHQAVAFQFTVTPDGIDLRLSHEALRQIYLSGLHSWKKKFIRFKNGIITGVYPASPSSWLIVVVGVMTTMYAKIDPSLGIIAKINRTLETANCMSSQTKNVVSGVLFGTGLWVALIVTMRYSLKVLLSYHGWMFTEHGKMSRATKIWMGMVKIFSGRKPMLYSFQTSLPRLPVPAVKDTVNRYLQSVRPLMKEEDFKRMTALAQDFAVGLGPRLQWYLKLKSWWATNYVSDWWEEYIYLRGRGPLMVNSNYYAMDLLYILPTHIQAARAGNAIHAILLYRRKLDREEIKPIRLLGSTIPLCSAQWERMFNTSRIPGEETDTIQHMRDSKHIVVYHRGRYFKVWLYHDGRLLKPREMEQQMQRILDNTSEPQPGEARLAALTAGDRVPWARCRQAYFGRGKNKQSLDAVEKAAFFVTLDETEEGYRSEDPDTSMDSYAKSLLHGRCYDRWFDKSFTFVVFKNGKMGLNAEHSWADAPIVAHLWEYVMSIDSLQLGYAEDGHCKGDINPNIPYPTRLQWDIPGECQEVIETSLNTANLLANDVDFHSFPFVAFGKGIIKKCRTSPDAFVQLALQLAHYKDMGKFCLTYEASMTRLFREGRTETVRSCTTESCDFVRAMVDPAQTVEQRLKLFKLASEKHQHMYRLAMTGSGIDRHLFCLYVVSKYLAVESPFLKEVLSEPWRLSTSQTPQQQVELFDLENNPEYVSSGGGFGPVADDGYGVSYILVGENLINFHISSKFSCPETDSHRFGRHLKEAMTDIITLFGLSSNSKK
Experiment: L-CPT1 inhibition, spectrophotometric CPT activity assay with DTNB (Ellman's reagent)
Assay type: biochemical
Settings: cell-free extracts of P. pastoris expressing human liver CPT1; carnitine 500 μM, palmitoyl-CoA 80 μM, DTNB 300 μM, pH 7.4
Protocol: The following tests were carried out in order to determine the activity of the compounds of the present invention. Background information on the performed assays can be found in: Jackson et al., 1999, Biochem. J. 341, 483-489 and Jackson et al., 2000, J. Biol. Chem. 275, 19560-19566.
Human liver and muscle CPT1 cDNAs and rat CPT2 cDNA were subcloned in pGAPZB or pGAPZA, respectively. These plasmids were used to transform P. pastoris strain X-33 via electroporation after the preparation of electrocompetent cells. High copy number clones were selected where necessary using 0.5 or 1 mg/ml Zeocin. Cultures for activity measurements were induced for 16 h in YPD medium (1% yeast extract, 2% peptone, 2% glucose). Crude cell extracts were prepared by disrupting the cells with glass beads or French Press, depending on fermenter sizes. After centrifugation, the cell-free extracts were resuspended in cell breaking buffer (50 mM Tris, pH7.4, 100 mM KCl, 1 mM EDTA) in the presence of a protease inhibitor cocktail, before aliquoting and freezing at −20° C.
CPT activity was measured using a spectrophotometric assay using 5,5′-dithio-bis-(2-nitrobenzoic acid) (DTNB) also called Ellman's reagent. The HS-CoA released on the formation of acylcarnitine from carnitine (500 μM) and palmitoyl-CoA (80 μM) reduced DTNB (300 μM) forming 5-mercapto-(2-nitrobenzoic acid) which absorbed at 410 nm with a molar extinction coefficient of 13600 M^−1.cm^−1. The assay buffer contained 120 mM KCl, 25 mM Tris, pH 7.4, 1 mM EDTA. This assay was used for the identification of selective inhibitors of the liver CPT1 isoform versus the muscle CPT1 and CPT2 isoforms.

SMILES | IC50
COc1ccc(Cl)cc1S(=O)(=O)N1COCc2ccc(C(=O)Nc3ccc(C(=O)O)cc3)cc21 [Example 73, 4-{[1-(5-Chloro-2-methoxy-benzenesulfonyl)-1,4-dihydro-2H-benzo[d][1,3]oxazine-7-carbonyl]-amino}-benzoic acid] | 56 nM
O=C(O)Cc1csc(NC(=O)c2ccc3c(c2)N(S(=O)(=O)c2cccc(Cl)c2)CCO3)n1 [Example 92, (2-{[4-(3-Chloro-benzenesulfonyl)-3,4-dihydro-2H-benzo[1,4]oxazine-6-carbonyl]-amino}-thiazol-4-yl)-acetic acid] | 23 nM

Results, then the compound that gave them:

IC50 | SMILES
78 nM | COc1ccc(Cl)cc1S(=O)(=O)N1CCOc2ccc(C(=O)Nc3ccc(C(=O)O)c(F)c3)cc21 [Example 2, 4-{[4-(5-Chloro-2-methoxy-benzenesulfonyl)-3,4-dihydro-2H-benzo[1,4]oxazine-6-carbonyl]-amino}-2-fluoro-benzoic acid]
140 nM | COc1ccc(Cl)cc1S(=O)(=O)N1COc2ccc(C(=O)Nc3ccc(C(=O)O)c(F)c3)cc21 [Example 32, 4-{[3-(5-Chloro-2-methoxy-benzenesulfonyl)-2,3-dihydro-benzooxazole-5-carbonyl]-amino}-2-fluoro-benzoic acid]
16 nM | COc1ccc(Cl)cc1S(=O)(=O)N1CC(C(=O)O)Oc2ccc(C(=O)Nc3cccc(F)c3)cc21 (centres unmarked) [Example 113, 4-(5-Chloro-2-methoxy-benzenesulfonyl)-6-(3-fluoro-phenylcarbamoyl)-3,4-dihydro-2H-benzo[1,4]oxazine-2-carboxylic acid]
